Data as given in patent EP4455142A1, “NOVEL INHIBITOR OF QPCTL AND/OR QC” (Scenic Immunology B.V., priority 2023, dated 2024).
In brackets after ≈: the same amount, converted by molar mass.

Key:
[1] = Microsomal stability, human (HLM); type: in vitro ADME; settings: liver microsomes, 0.5 mg protein/mL, 1 µM test compound
Procedure: (§1) In order to assess metabolic stability of test compounds, commercially acquired CD-1 mouse liver microsome preparations were incubated in 100 µL at a final concentration of 0.5 mg protein/mL, 1 µM test compound, 0.99% methanol and 0.01% DMSO, after a 10 minute pre-incubation at 37°C and addition of 0.1 volumes 10 U/mL NADPH in 10 mM MgCl2. Reactions were stopped by addition of 300 µL cold acetonitrile containing internal standards at t = 0, 5, 10, 20, 30, and 60 minutes. Samples were submitted to LC-MS/MS analysis subsequently and the slope of linear regression of time versus In(% Remaining concentration) was derived to calculate t½ as t½= In(2) /(-Slope). Then Clint(mic) and Clint(liver) were calculated as follows: CLint(mk) = (0.693)/(In vitro T1/2) · (1)/(mg/mL microsomal protein in reaction system) [formula] CLint(liver) = CLint(mic) · (mg microsomes)/(g liver) · (g liver)/(kg body weight) [formula]
The same procedure was performed for human microsomes, SD rat microsomes and (beagle) dog microsomes.
Where 45 mg microsomal protein/g liver and 20 g liver/kg human bodyweight were used as standardized parameters for human microsomes.

[2] = target: T1, human isoQC (Homo sapiens, UniProt Q9NXS2); assay: Assay 1 - isoQC potency, fluorescent enzymatic assay (H-Gln-AMC, coupled pGAPase detection); type: biochemical; settings: recombinant isoQC, 1 hour at 37°C
T1 construct: The Golgi luminal, enzymatically active region of human isoQC (S53-L382; see, e.g., Huang et al., 2011); GST (with enterokinase site) (N, cleaved yes); made in house; host or cells: E. coli
From the text: The Golgi luminal, enzymatically active region of human isoQC (S53-L382; see, e.g., Huang et al., 2011) was obtained by expression in E. coli of an N-terminally GST Enterokinase and C-terminally 6xHis tagged construct in the pET41(+) vector and subsequent purification using Ni-NTA IMAC. Enterokinase digestion ensued, followed by another Ni-NTA IMAC purification, Superdex75 based size exclusion and finally a spin concentration using a 10 kDa molecular weight cutoff. The final protein is formulated in 50 mM Tris-HCl, 150 mM NaCl, 50% Glycerol, pH 7.8.
Pyroglutamylation was measured by conversion of glutamine-4-amino-7-methylcoumarine (H-Gln-AMC, Bachem) to pyroglutamyl-AMC, which is subsequently a specific substrate for pyroglutamylaminopeptidase (pGAPase, Qiagen), releasing free AMC which can be fluorescently detected. For a typical inhibition assay, 7.5 µL aliquots of threefold dilutions of test compound in 50mM Tris pH8 buffer were plated in 384-well plates. 15 µL 20 µM hGln-AMC (diluted from a 40 mM stock dissolved in 25 mM HEPES using 50 mM Tris-HCl 25 pH 8.0) was added to each well. Finally, 7.5 µL, 3 ng/µL recombinant isoQC enzyme was added and the reaction mixture was incubated for 1 hour at 37°C. A 5 minute incubation at 98°C was then performed to denature the isoQC enzyme and stop the reaction.
To detect the amount of pyroglutamyl-AMC formed, a 0.125 U/mL pGAPase enzyme diluted in 50 mM Tris-HCl pH 8.0 containing 10 mM dithiothreitol (DTT) solution was prepared. 25 µL of the pyroglutamylation reaction mixture was transferred into an empty plate and to that, 25 µL of the pGAPase enzyme solution was added. Plates were then incubated for 25 minutes at room temperature before fluorescence readings were taken on an Envision2 plate reader with excitation set at 380 nm and emission at 450 nm. DMSO concentrations during the assay never exceeded 1% and activities were compared to controls containing only the same amount of DMSO and no test compound. Controls were taken along containing pyroglutamylated-AMC (Bachem, dissolved at 10 mM in DMSO) instead of H-Gln-AMC to control for pGAPase inhibition.
IC50 values are calculated using non-linear regression analysis with GraphPad Prism software.

[3] = CACO-2-based cell-permeation and efflux; type: in vitro ADME; settings: human, 2 µM compound, pH 7.40; for Papp A→B at 2 h, 2 µM: Caco-2, pH 7.4, A2B; for Papp B→A at 2 h, 2 µM: Caco-2, pH 7.4, B2A
Procedure: CACO-2 (ATCC, Manassas, VA, USA) monolayers on polyethylene membranes in 96-well insert plates were incubated for 2 hours in 5% C02, 37°C with 2 µM compound tested bidirectionally in duplicate using HBSS with 10 mM HEPES at pH 7.40 ±0.05 as transport buffer. Final DMSO Concentrations were adjusted to less than 1%. All samples were mixed with acetonitrile containing internal standard and centrifuged at 3220 x g for 10 minutes. Subsequently, 100 µL supernatant solution was diluted with 100 µL distilled water for LC/MS/MS analysis. Lucifer yellow rejection assays were applied after the transport assay to ensure CACO-2 cell monolayer integrity.
The apparent permeability coefficient Papp (cm/s) was calculated using the equation: Papp = (dCr/dt) × Vr/(A×CO) [formula] where dCr/dt is the cumulative concentration of compound in the receiver chamber as a function of time (µM/s); Vr is the solution volume in the receiver chamber (0.075 mL on the apical side, 0.25 mL on the basolateral side); A is the surface area for the transport, i.e., 0.0804 cm^2 or the area of the monolayer; CO is the initial concentration in the donor chamber (µM).

[4] = Microsomal stability, mouse (MLM); type: in vitro ADME, CD-1 mouse; settings: mouse liver microsomes, 0.5 mg protein/mL, 1 µM test compound
Procedure: as §1
Where 45 mg microsomal protein/g liver and 88 g liver/kg mouse bodyweight were used as standardized parameters for mouse microsomes.

[5] = Kinetic solubility; type: physicochemical; settings: aqueous buffer; 50 mM phosphate buffer (pH 7.4), 24 hours at room temperature
Procedure: To assess the solubility of test compounds 10 µL of a 10 mM solution in DMSO was added to the lower chamber of a whatman miniuniprep (PTFE Filter Media with Polypropylene Housing) vial. 490 µL of 50 mM phosphate buffer (pH 7.4) was added to the lower chamber, the samples were vortexed for at least two minutes and then shaken on a shaker for 24 hours at room temperature at the speed of 880 rpm. The samples were then centrifuged for 20 minutes at 4000 rpm, compressed and the filtrates were injected into a HPLC-UV and LC-MS/MS system to calculate the concentration compared to the standard curve using a ACQUITY UPLC BEH C18 1.7 µm 2.1 * 50 mm column.

T1 sequence (Q9NXS2 53-382): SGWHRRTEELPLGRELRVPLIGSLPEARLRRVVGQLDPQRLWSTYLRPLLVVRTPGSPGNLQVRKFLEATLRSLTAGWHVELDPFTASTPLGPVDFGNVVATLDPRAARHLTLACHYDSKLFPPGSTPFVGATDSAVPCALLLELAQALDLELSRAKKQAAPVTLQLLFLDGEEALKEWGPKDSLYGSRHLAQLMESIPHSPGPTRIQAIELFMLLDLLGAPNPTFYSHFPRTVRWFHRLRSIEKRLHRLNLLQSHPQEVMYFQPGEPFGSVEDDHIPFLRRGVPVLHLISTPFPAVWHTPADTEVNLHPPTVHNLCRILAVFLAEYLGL

| Structure (SMILES) | CLint scaled at 1 µM [1] [mL/min/kg] | IC50 [2] [nM] | Papp A→B at 2 h, 2 µM [3] [×10⁻⁶ cm/s] | Papp B→A at 2 h, 2 µM [3] [×10⁻⁶ cm/s] | CLint scaled at 1 µM [4] [mL/min/kg] | solubility at 24 h [5] [µM] |
| --- | --- | --- | --- | --- | --- | --- |
| O=C1OCC(c2ccc(N3CCCC3)cc2)N1c1ccc2[nH]cnc2c1 (single isomer, unassigned) [(18)-ent2] | 73.8 | 23.9 | 2.8 | 18.8 | 488 | 60 (≈ 20.9 µg/mL) |
| O=C1OC[C@H](c2ccc(-c3cnn(C(F)(F)F)c3)cc2F)N1c1ccc2[nH]cnc2c1 [Compound (1)] | < 8.6 | 1.7 | 2 | 21.9 | 67.5 | 121 (≈ 52.2 µg/mL) |
| O=C1OCC(c2ccc(C3CCC(F)(F)CC3)cc2)N1c1ccc2[nH]cnc2c1 (single isomer, unassigned) [(19)-ent2] | 19.7 | 35.8 | 3.9 | 23.9 | 339 | 42 (≈ 16.7 µg/mL) |
